# Measured values reported in patent US10550124B2, “Atropisomerism for increased kinase inhibitor selectivity” (SAN DIEGO STATE UNIVERSITY RESEARCH FOUNDATION, priority 2015, dated 2020).
# Tests used:
# [1] = Experimental measurement of the barriers to rotation (chiral HPLC); type: physicochemical; conditions: for Barrier to Rotation: calculated from kobs, Gibbs free energy equation; for Barrier to Rotation kobs: observed rate constant of racemization, in ethanol, heated at constant temperature, in s^-1 (unit assumed)
# Experimental: Enantiomerically enriched atropisomeric pyrrolopyrimidine analogues were isolated via chiral HPLC (Daicel Chiralpak IA PN:80335, 3 mL/min, 80:20 or 50:50 hexanes:[…], 25° C.) and evaporated in vacuo. The enantiomerically enriched analogues were then dissolved in ethanol and placed in a sealed 2-dram vial and heated under constant temperature on an aluminum block. At each time point, an aliquot of the mixture was removed and quenched in an HPLC vial containing ice cold 80:20 hexanes:ethanol. Each sample was then injected into the chiral HPLC system (Daicel Chiralpak IA PN:80325, 1 mL/min, 80:20 or 50:50 hexanes:ethanol, 25° C.) and enantiomeric excess (ee) measured. The timepoint and enantiomeric excess (ee) data was then plotted in order to determine an observed rate constant, kobs, at the corresponding temperature. The barrier to rotation was then calculated using the relationship of kracemization=2*kenantiomerization and then substituted into the Gibbs Free Energy Equation:
# [formula] where h=Planck Constant, kb=Boltzmann Constant, T=Temp. (K), R=Gas Constant.
# Src kinase = Src kinase (Homo sapiens, UniProt P12931); assay: Z′-LYTE kinase inhibition assay, Src; type: biochemical; conditions: for IC50: Src, error is standard deviation
# Sequence of Src kinase (P12931 whole entry): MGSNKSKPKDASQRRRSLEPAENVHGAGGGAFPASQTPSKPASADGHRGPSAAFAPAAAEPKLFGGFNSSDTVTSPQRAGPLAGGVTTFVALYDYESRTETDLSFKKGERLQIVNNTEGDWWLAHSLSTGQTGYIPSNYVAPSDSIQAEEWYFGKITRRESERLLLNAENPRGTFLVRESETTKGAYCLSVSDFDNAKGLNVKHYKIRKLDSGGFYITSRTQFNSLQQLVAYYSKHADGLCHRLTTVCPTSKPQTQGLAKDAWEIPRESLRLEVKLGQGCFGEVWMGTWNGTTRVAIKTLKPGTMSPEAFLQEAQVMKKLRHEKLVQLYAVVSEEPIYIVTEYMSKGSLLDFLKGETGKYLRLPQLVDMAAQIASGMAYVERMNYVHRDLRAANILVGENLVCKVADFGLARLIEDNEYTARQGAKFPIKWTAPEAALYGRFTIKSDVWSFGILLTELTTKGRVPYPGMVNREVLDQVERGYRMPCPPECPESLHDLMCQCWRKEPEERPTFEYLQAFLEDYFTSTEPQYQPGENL
# Source text: Based on the observed stereochemical stabilities, we chose 1f, 2e, and 2f for further study and obtained inhibition data against Src kinase from Life Technologies' Z′-LYTE™ kinase assay (Scheme 3).
# (§1) All samples were sent out to Life Technologies to obtain kinase inhibition data. A brief description of the assays and analyses are included below.
# (§2) Assay Theory (SelectScreen® Kinase Profiling Services (Life Technologies, Madison, Wis. USA). The Z′-LYTE® biochemical assay employs a fluorescence-based, coupled-enzyme format and is based on the differential sensitivity of phosphorylated and non-phosphorylated peptides to proteolytic cleavage. The peptide substrate is labeled with two fluorophores one at each end—that make up a FRET pair.
# (§3) In the primary reaction, the kinase transfers the gamma-phosphate of ATP to a single tyrosine, serine or threonine residue in a synthetic FRET-peptide. In the secondary reaction, a site-specific protease recognizes and cleaves non-phosphorylated FRET-peptides.
# (§4) Phosphorylation of FRET-peptides suppresses cleavage by the Development Reagent. Cleavage disrupts FRET between the donor (i.e., coumarin) and acceptor (i.e., fluorescein) fluorophores on the FRET-peptide, whereas uncleaved, phosphorylated FRET-peptides maintain FRET. A ratiometric method, which calculates the ratio (the Emission Ratio) of donor emission to acceptor emission after excitation of the donor fluorophore at 400 nm, is used to quantitate reaction progress, as shown in the equation below: […]
# (§5) A significant benefit of this ratiometric method for quantitating reaction progress is the elimination of well-to-well variations in FRET-peptide concentration and signal intensities. As a result, the assay yields very high Z′-factor values (>0.7) at a low percent phosphorylation. Both cleaved and uncleaved FRET-peptides contribute to the fluorescence signals and therefore to the Emission Ratio. The extent of phosphorylation of the FRET-peptide can be calculated from the Emission Ratio. The Emission Ratio will remain low if the FRET-peptide is phosphorylated (i.e., no kinase inhibition) and will he high if the FRET-peptide is non-phosphorylated (i.e., kinase inhibition).
# pdgfr-b = pdgfr-b (Homo sapiens, UniProt P09619); assay: Z′-LYTE kinase inhibition assay, pdgfr-b; type: biochemical; conditions: average of 2 runs
# Source text: as §1, §2, §3, §4, §5
# Fgr = Fgr (Homo sapiens, UniProt P09769); assay: Z′-LYTE kinase inhibition assay, Fgr; type: biochemical; conditions: average of 2 runs
# Source text: as §1, §2, §3, §4, §5
# Abl = Abl (Homo sapiens, UniProt P00519); assay: Z′-LYTE kinase inhibition assay, Abl; type: biochemical; conditions: for % inhibition: average of 2 runs
# Sequence of Abl (P00519 whole entry): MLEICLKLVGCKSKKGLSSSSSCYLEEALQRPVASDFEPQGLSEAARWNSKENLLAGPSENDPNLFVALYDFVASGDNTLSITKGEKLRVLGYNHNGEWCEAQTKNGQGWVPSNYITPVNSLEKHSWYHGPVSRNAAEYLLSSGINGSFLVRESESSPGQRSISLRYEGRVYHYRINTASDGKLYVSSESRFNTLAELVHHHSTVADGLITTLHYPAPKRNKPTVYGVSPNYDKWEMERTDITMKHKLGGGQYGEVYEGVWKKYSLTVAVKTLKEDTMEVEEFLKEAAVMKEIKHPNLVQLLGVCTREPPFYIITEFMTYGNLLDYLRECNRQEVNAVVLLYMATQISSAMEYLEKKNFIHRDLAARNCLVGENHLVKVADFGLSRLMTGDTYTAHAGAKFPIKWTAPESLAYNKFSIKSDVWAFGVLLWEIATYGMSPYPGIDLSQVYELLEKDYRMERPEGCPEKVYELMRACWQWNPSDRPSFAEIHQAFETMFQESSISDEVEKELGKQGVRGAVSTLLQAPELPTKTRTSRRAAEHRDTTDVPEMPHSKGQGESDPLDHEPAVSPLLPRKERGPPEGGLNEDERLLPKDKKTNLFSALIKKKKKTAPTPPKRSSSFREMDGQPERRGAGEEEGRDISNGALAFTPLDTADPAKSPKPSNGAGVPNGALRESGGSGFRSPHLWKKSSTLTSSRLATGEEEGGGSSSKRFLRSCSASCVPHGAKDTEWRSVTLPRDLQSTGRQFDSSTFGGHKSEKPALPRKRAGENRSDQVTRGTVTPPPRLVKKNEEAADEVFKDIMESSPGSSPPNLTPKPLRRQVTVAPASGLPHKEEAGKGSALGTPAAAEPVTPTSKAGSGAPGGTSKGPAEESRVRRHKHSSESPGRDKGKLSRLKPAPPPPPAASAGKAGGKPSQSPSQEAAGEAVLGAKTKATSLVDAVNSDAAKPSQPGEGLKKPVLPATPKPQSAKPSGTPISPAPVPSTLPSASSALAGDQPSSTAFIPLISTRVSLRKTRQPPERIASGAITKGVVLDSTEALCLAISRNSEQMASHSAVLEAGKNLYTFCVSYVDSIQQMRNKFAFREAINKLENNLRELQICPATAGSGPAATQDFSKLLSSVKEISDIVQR
# Source text: as §1, §2, §3, §4, §5
# EGFR = EGFR (Homo sapiens, UniProt P00533); assay: Z′-LYTE kinase inhibition assay, EGFR; type: biochemical; conditions: for % inhibition: average of 2 runs
# Sequence of EGFR (P00533 25-1210): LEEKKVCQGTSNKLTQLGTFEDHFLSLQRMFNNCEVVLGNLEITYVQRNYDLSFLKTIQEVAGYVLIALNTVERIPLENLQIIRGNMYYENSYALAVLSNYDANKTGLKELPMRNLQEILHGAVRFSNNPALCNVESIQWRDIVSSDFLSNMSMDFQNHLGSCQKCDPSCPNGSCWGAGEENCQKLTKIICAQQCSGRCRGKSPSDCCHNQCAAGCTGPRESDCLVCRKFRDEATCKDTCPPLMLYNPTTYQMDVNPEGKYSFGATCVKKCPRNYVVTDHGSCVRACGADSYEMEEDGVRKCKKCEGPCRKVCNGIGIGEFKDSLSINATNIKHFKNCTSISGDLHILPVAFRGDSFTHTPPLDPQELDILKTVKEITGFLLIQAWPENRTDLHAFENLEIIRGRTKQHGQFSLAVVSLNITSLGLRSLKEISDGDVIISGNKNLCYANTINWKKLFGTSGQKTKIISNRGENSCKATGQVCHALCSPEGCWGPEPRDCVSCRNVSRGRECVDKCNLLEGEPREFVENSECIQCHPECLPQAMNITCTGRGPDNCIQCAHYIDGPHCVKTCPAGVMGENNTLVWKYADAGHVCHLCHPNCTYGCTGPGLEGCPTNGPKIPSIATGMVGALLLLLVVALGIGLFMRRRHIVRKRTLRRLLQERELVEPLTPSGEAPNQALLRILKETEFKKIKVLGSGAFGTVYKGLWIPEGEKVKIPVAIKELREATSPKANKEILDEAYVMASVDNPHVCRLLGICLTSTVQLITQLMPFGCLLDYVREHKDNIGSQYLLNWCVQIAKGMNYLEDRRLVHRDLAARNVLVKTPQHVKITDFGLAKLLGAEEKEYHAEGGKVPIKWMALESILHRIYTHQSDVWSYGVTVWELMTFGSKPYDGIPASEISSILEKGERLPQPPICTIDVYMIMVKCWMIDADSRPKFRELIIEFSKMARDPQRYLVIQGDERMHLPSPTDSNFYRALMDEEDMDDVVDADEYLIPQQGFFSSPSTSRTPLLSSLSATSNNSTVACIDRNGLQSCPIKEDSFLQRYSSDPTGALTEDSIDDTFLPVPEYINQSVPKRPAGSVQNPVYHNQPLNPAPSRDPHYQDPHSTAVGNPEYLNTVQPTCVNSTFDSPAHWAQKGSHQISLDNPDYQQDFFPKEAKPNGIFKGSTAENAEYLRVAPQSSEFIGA
# Source text: as §1, §2, §3, §4, §5
# Lyn = Lyn (Homo sapiens, UniProt P07948); assay: Z′-LYTE kinase inhibition assay, Lyn; type: biochemical; conditions: average of 2 runs
# Source text: as §1, §2, §3, §4, §5
# Lck = Lck (Homo sapiens, UniProt P06239); assay: Z′-LYTE kinase inhibition assay, Lck; type: biochemical; conditions: average of 2 runs
# Source text: as §1, §2, §3, §4, §5
# Blk = Blk (Homo sapiens, UniProt P51451); assay: Z′-LYTE kinase inhibition assay, Blk; type: biochemical; conditions: average of 2 runs
# Source text: as §1, §2, §3, §4, §5
# Her-2 = Her-2 (Homo sapiens, UniProt P04626); assay: Z′-LYTE kinase inhibition assay, Her-2; type: biochemical; conditions: average of 2 runs
# Source text: as §1, §2, §3, §4, §5
# Ret = Ret (Homo sapiens, UniProt P07949); assay: Z′-LYTE kinase inhibition assay, Ret; type: biochemical; conditions: for % inhibition: average of 2 runs
# Sequence of Ret (P07949 29-1114): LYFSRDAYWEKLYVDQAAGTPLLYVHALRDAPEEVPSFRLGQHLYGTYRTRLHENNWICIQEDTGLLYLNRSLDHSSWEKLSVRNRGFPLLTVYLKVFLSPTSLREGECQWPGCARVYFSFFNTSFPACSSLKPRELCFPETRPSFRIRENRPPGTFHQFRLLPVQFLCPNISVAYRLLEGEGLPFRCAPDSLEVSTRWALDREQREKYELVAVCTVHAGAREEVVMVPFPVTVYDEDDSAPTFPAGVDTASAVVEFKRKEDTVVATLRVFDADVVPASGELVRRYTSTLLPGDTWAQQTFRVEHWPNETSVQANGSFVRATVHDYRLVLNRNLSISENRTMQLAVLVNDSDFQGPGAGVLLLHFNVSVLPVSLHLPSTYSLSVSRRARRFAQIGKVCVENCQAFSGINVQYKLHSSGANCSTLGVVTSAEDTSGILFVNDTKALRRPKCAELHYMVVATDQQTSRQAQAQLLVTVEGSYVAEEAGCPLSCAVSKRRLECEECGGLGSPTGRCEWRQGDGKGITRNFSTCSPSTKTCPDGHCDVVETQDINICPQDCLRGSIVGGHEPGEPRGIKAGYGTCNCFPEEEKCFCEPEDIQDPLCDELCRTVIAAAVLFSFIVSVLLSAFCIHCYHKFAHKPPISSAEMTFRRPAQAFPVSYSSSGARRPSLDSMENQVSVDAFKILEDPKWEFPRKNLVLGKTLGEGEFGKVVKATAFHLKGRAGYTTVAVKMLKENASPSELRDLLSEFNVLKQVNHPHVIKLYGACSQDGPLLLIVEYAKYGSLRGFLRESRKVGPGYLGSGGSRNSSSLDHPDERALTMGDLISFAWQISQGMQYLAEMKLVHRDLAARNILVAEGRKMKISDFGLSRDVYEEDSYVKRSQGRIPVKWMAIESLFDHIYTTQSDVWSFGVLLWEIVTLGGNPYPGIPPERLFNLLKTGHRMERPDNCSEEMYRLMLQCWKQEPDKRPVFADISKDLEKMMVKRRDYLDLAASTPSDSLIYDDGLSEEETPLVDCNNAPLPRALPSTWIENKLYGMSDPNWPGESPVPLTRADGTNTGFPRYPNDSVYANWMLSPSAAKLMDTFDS
# Source text: as §1, §2, §3, §4, §5
# Hck = Hck (Homo sapiens, UniProt P08631); assay: Z′-LYTE kinase inhibition assay, Hck; type: biochemical; conditions: average of 2 runs
# Source text: as §1, §2, §3, §4, §5
# pdgfr-a = pdgfr-a (Homo sapiens, UniProt P16234); assay: Z′-LYTE kinase inhibition assay, pdgfr-a; type: biochemical; conditions: average of 2 runs
# Source text: as §1, §2, §3, §4, §5
# BTK = BTK (Homo sapiens, UniProt Q06187); assay: Z′-LYTE kinase inhibition assay, BTK; type: biochemical; conditions: average of 2 runs
# Source text: as §1, §2, §3, §4, §5
# CSK = CSK (Homo sapiens, UniProt P41240); assay: Z′-LYTE kinase inhibition assay, CSK; type: biochemical; conditions: average of 2 runs
# Source text: as §1, §2, §3, §4, §5
# Fyn = Fyn (Homo sapiens, UniProt P06241); assay: Z′-LYTE kinase inhibition assay, Fyn; type: biochemical; conditions: average of 2 runs
# Sequence of Fyn (P06241 whole entry): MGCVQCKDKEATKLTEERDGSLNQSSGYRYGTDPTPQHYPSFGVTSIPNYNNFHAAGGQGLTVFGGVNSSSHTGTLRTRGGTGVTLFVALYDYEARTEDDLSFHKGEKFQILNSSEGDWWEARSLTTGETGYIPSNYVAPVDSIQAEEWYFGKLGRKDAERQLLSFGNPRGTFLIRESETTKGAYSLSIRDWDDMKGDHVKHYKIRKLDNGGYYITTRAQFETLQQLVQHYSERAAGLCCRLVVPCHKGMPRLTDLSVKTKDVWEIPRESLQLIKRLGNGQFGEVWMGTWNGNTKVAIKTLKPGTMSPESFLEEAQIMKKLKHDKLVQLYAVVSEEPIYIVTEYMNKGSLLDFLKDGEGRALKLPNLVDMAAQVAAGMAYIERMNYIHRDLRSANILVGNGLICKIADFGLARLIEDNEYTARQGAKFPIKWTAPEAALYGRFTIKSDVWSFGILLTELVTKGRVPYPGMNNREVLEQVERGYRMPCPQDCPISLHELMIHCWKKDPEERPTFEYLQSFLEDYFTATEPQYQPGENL
# Source text: as §1, §2, §3, §4, §5
# [2] = system: panel of 18 tyrosine kinases; assay: Kinase inhibitor profiling across a panel of tyrosine kinases (selectivity); type: biochemical; conditions: for S(40%): number of kinases inhibited greater than 40% divided by number of kinases tested (including Src)
# Experimental: In order to probe the effect of atropisomeric conformation on kinase selectivity we subjected 1f, 2e, and 2f to kinase inhibitor profiling across a panel of tyrosine kinases at 1000 nM and 5000 nM (data for 2e shown in Scheme 4 below).
# To analyze each analog's selectivity across the panel we turned to selectivity scores (Davis et al., Nat. Biotechnol. 2011, 29, 1046-51), simply the number of kinases inhibited above a certain threshold divided by the number of kinases evaluated. […] For example at 1000 nM 2e-(R) yielded an S(40%) of 0.11 while 2e-(S) gave an S(40%) of 0.16. […] Differences in selectivity between 2e-(R) and 2e-(S) at 5000 nM (4.5 times the IC50 of 2e-(S) toward Src) and for 5 at 1000 nM (6.25 times the IC50 of 5 toward Src) can be viewed graphically across tyrosine kinases (FIG. 3). Importantly, similar trends were also observed across each of the atropisomeric series tested.
# as §1, §2, §3, §4, §5
# Yes = Yes (Homo sapiens, UniProt P07947); assay: Z′-LYTE kinase inhibition assay, Yes; type: biochemical
# Sequence of Yes (P07947 whole entry): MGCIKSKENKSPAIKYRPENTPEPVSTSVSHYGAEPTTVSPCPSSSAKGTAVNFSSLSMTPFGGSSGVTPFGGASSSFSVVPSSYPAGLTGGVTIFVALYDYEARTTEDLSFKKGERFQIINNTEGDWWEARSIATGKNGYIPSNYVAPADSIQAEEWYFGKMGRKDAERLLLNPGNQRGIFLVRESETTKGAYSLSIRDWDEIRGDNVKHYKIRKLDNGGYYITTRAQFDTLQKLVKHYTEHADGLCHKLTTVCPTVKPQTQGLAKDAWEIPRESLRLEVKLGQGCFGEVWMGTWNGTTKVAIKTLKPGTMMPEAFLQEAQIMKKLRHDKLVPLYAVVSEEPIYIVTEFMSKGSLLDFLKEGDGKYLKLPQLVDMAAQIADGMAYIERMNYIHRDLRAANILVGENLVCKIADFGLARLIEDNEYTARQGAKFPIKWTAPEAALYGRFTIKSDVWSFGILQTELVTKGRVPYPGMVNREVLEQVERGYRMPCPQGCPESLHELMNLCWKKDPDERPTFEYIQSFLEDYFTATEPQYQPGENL
# Source text: as §1, §2, §3, §4, §5
# Kit = Kit (Homo sapiens, UniProt P10721); assay: Z′-LYTE kinase inhibition assay, Kit; type: biochemical; conditions: average of 2 runs
# Source text: as §1, §2, §3, §4, §5
# Alk = Alk (Homo sapiens, UniProt Q9UM73); assay: Z′-LYTE kinase inhibition assay, Alk; type: biochemical; conditions: average of 2 runs
# Source text: as §1, §2, §3, §4, §5
compound,measurement,setting,value
"COc1ccc(Br)c(-c2c(Cl)n(C3CCCC3)c3ncnc(N)c23)c1 (racemic) [Compound 1f, 5-(2-bromo-5-methoxyphenyl)-6-chloro-7-cyclopentyl-7H-pyrrolo[2,3-d]pyrimidin-4-amine]",Barrier to Rotation,[1],29.0 kcal/mol
same,Barrier to Rotation kobs,[1],1.01E−05
"COc1ccc(Cl)c(-c2c(Cl)n(C(C)(C)C)c3ncnc(N)c23)c1 (racemic) [Compound 2e, 7-(tert-butyl)-6-chloro-5-(2-chloro-5-methoxyphenyl)-7H-pyrrolo[2,3d]pyrimidin-4-amine]",Barrier to Rotation,[1],28.6 kcal/mol
same,Barrier to Rotation kobs,[1],3.27E−05
"COc1ccc(Br)c(-c2c(Cl)n(C(C)(C)C)c3ncnc(N)c23)c1 (racemic) [Compound 2f, 5-(2-bromo-5-methoxyphenyl)-7-(tert-butyl)-6-chloro-7H-pyrrolo[2,3-d]pyrimidin-4-amine]",Barrier to Rotation,[1],30.4 kcal/mol
same,Barrier to Rotation kobs,[1],2.68E−05
"COc1ccc(Br)c(-c2c(Cl)n(C3CCCC3)c3ncnc(N)c23)c1 (single isomer, unassigned) [1f-(R), 5-(2-bromo-5-methoxyphenyl)-6-chloro-7-cyclopentyl-7H-pyrrolo[2,3-d]pyrimidin-4-amine]",IC50,Src kinase,> 10000 nM
"COc1ccc(Br)c(-c2c(Cl)n(C3CCCC3)c3ncnc(N)c23)c1 (single isomer, unassigned) [1f-(S), 5-(2-bromo-5-methoxyphenyl)-6-chloro-7-cyclopentyl-7H-pyrrolo[2,3-d]pyrimidin-4-amine]",IC50,Src kinase,1300 nM
"COc1ccc(Cl)c(-c2c(Cl)n(C(C)(C)C)c3ncnc(N)c23)c1 (single isomer, unassigned) [2e-(R), 7-(tert-butyl)-6-chloro-5-(2-chloro-5-methoxyphenyl)-7H-pyrrolo[2,3d]pyrimidin-4-amine]",% inhibition,"pdgfr-b; 1000 nM, 1 µM",4%
same,inhibition at 5 µM,pdgfr-b; 5000 nM,13%
same,inhibition at 1 µM,Fgr; 1000 nM,45%
same,inhibition at 5 µM,Fgr; 5000 nM,77%
same,IC50 of Kinase/IC50 of Yes,Src kinase; Src relative to Yes,6.22
same,IC50,Src kinase,5570 nM
same,IC50 of Kinase/IC50 of Yes,Abl; Abl relative to Yes,10.0
same,% inhibition,"Abl; Abl, 1000 nM, 1 µM",11%
same,% inhibition,"Abl; Abl, 5000 nM",26%
same,% inhibition,"Abl; Abl, 5000 nM, 5 µM",26%
same,IC50,"Abl; Abl, error is standard deviation",> 10000 nM
same,IC50 of Kinase/IC50 of Yes,EGFR; EGFR relative to Yes,>10.0
same,% inhibition,"EGFR; EGFR, 1000 nM, 1 µM",−4%
same,% inhibition,"EGFR; EGFR, 5000 nM, 5 µM",0%
same,IC50,"EGFR; EGFR, error is standard deviation",> 10000 nM
same,inhibition at 1 µM,Lyn; 1000 nM,19%
same,inhibition at 5 µM,Lyn; 5000 nM,57%
same,inhibition at 1 µM,Lck; 1000 nM,23%
same,inhibition at 5 µM,Lck; 5000 nM,51%
same,% inhibition,"Blk; 1000 nM, 1 µM",3%
same,inhibition at 5 µM,Blk; 5000 nM,32%
same,% inhibition,"Her-2; 1000 nM, 1 µM",−2%
same,inhibition at 5 µM,Her-2; 5000 nM,0%
same,IC50 of Kinase/IC50 of Yes,Ret; Ret relative to Yes,2.07
same,% inhibition,"Ret; Ret, 1000 nM, 1 µM",35%
same,% inhibition,"Ret; Ret, 5000 nM",73%
same,% inhibition,"Ret; Ret, 5000 nM, 5 µM",73%
same,IC50,"Ret; Ret, error is standard deviation",1860 nM
same,inhibition at 1 µM,Hck; 1000 nM,24%
same,inhibition at 5 µM,Hck; 5000 nM,40%
same,inhibition at 1 µM,pdgfr-a; 1000 nM,3%
same,inhibition at 5 µM,pdgfr-a; 5000 nM,8%
same,inhibition at 1 µM,BTK; 1000 nM,10%
same,% inhibition,"BTK; 5000 nM, 5 µM",29%
same,inhibition at 1 µM,CSK; 1000 nM,21%
same,inhibition at 5 µM,CSK; 5000 nM,35%
same,inhibition at 1 µM,Fyn; 1000 nM,19%
same,inhibition at 5 µM,Fyn; 5000 nM,44%
same,S(40%),[2]; 1000 nM,0.11
same,S(40%),[2]; 5000 nM,0.44
same,augmentation of 5's inherent selectivity,[2]; Ret over Abl and Src,4 fold
same,IC50 of Kinase/IC50 of Yes,Yes; Yes relative to Yes,1
same,inhibition at 1 µM,"Yes; Yes, 1000 nM, average of 2 runs",53%
same,inhibition at 5 µM,"Yes; Yes, 5000 nM, average of 2 runs",79%
same,IC50,"Yes; Yes, error is standard deviation",895 nM
same,% inhibition,"Kit; 1000 nM, 1 µM",5%
same,inhibition at 5 µM,Kit; 5000 nM,26%
same,inhibition at 1 µM,Alk; 1000 nM,6%
same,% inhibition,"Alk; 5000 nM, 5 µM",18%
"COc1ccc(Cl)c(-c2c(Cl)n(C3CCCC3)c3ncnc(N)c23)c1 [Compound 1e, 6-chloro-5-(2-chloro-5-methoxyphenyl)-7-cyclopentyl-7H-pyrrolo[2,3-d]pyrimidin-4-amine]",Barrier to Rotation,[1],27.2 kcal/mol
same,Barrier to Rotation kobs,[1],1.24E−04
